Values quoted from earlier work in patent US8324425B2, “Method for producing bicyclic γ-amino acid derivative” (Daiichi Sankyo Company, Limited, priority 2009, dated 2012).

Columns and labels:
[1] = according to patients' own evaluation; Non Patent Literature 3
[2] = according to patients' own evaluation; Non Patent Literature 4

SMILES | efficacy in the treatment of postherpetic neuralgia [1] | efficacy in the treatment of painful diabetic neuropathy [2]
NCC1(CC(=O)O)CCCCC1 [gabapentine] | approximately 60% | 
CC(C)C[C@H](CN)CC(=O)O [pregabalin] |  | approximately 50%
